Publication PMC9921851, “Synthesis and Preclinical Evaluation of Three Novel ^68Ga-Labeled Bispecific PSMA/FAP-Targeting Tracers for Prostate Cancer Imaging” (Molecules, 2023)

Columns and labels:
PSMA = target: T1, PSMA (Homo sapiens, UniProt Q04609); assay: In vitro PSMA competition binding assay ([^18F]DCFPyL displacement on LNCaP cells); settings: radioligand [^18F]DCFPyL, n = 3
T1 construct: endogenous in cells; host or cells: LNCaP cells (ATCC via Cedarlane)
Protocol: The binding affinities of Ga-AV01017, Ga-AV01030, Ga-AV01038, Ga-HTK03041, and Ga-FAPI-04 to PSMA were measured by a cell-based binding assay using PSMA-expressing LNCaP prostate cancer cells. The nonradioactive Ga-complexed standards, except Ga-FAPI-04, inhibited the binding of [^18F]DCFPyL to LNCaP cells in a dose-dependent manner (Figure 3A).
The PSMA binding assays were conducted following previously published procedures using LNCaP cells and [^18F]DCFPyL as the radioligand [34, 42, 43]. Data analyses of IC50 were performed using the nonlinear regression algorithm of GraphPad Prism 7 (San Diego, CA, USA) software.

recombinant human FAP = target: T2, recombinant human FAP (Homo sapiens, UniProt Q12884); assay: In vitro FAP fluorescence enzyme-inhibition assay (Suc-Gly-Pro-AMC substrate); type: biochemical; settings: n = 3
T2 construct: purchased Biolegend
T2 sequence (Q12884 1-760): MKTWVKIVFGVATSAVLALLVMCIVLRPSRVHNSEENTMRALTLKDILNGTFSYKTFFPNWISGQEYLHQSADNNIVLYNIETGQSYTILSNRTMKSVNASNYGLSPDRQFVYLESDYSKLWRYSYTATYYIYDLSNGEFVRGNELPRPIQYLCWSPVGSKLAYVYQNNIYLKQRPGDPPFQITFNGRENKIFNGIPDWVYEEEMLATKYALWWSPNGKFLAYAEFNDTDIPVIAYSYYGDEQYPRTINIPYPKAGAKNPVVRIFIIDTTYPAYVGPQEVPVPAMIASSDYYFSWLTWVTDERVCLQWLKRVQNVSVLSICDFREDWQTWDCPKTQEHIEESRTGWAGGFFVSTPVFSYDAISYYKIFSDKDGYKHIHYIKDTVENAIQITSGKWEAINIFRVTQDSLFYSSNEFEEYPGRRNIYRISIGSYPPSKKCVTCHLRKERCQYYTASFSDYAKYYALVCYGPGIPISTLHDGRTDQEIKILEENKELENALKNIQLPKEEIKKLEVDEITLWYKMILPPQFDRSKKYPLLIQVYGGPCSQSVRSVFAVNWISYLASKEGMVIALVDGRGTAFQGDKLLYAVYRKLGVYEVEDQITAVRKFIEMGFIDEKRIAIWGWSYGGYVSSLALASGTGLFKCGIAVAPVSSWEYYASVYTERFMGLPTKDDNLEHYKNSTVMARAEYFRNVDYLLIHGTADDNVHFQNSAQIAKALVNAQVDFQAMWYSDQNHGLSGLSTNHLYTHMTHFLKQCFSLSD
Protocol: The binding affinities of Ga-AV01017, Ga-AV01030, Ga-AV01038, Ga-HTK03041, and Ga-FAPI-04 to human FAP were measured by an enzyme-inhibition assay using Suc-Gly-Pro-AMC as the FAP substrate. The human FAP enzymatic activity on the substrate was inhibited by Ga-complexed standards in a dose-dependent manner (Figure 3B).
The half maximal inhibitory concentration (IC50) values of the tested compounds for FAP were measured by in vitro enzymatic assay. The recombinant human FAP (Biolegend; 0.2 µg/mL, 50 µL) was added into a costar 96-well plate. PBS and varied concentrations (0.2 pM to 2 µM) of tested nonradioactive Ga-complexed standards were added to each well (in duplicate) containing the recombinant human FAP. After being incubated for 30 min at 37 °C, 50 µL of Suc-Gly-Pro-AMC (2 µM, Bachem) was added to each well. The fluorescent signals were acquired at 15, 30, 45, and 60 min using a FlexStation 3 Multi-Mode Microplate Reader with excitation at 380 nm and emission at 460 nm. The IC50(FAP) was calculated using a “nonlinear fit model” built-in model in GraphPad Prism 7.02 software

[1] = tested on: PSMA-expressing LNCaP tumor xenografts; assay: Ex vivo biodistribution in LNCaP tumor-bearing mice; settings: 1 h post injection, range over LNCaP and HEK293T:hFAP tumor-bearing mice
Protocol: Biodistribution studies were conducted at 1 h post injection with ^68Ga-labeled AV01017, AV01030, AV01038, HTK03041, and FAPI-04 in LNCaP tumor-bearing mice (Figure 5 and Table S4, Supplementary Materials). The results were consistent with the observation from their PET images. Tumor uptake values for [^68Ga]Ga-AV01017, [^68Ga]Ga-AV01030, [^68Ga]Ga-AV01038, [^68Ga]Ga-HTK03041, and [^68Ga]Ga-FAPI-04 were 4.38 ± 0.55, 5.17 ± 0.51, 4.25 ± 0.86, 23.1 ± 6.11, and 3.15 ± 1.43 %ID/g, respectively. […] Although not statistically significant, the bispecific tracers with a longer linker tend to have a higher blood uptake value (9.24 ± 1.55 %ID/g for [^68Ga]Ga-AV01017; 7.07 ± 0.31%ID/g for [^68Ga]Ga-AV01038; 5.75 ± 0.59 %ID/g for [^68Ga]Ga-AV01030) and a lower tumor-to-blood ratio (0.48 ± 0.11 for [^68Ga]Ga-AV01017; 0.60 ± 0.13 for [^68Ga]Ga-AV01038; 0.89 ± 0.03 for [^68Ga]Ga-AV01030).
Imaging and biodistribution studies were performed using male NOD.Cg-Rag1tm1Mom Il2rgtm1Wjl/SzJ (NRG) mice following previously published procedures. The experiments were conducted according to the guidelines established by the Canadian Council on Animal Care and approved by Animal Ethics Committee of the University of British Columbia. The mice were briefly sedated by inhalation of 2.5% isoflurane in oxygen, and 100 µL LNCaP (2 × 10^5 cells) or HEK293T:hFAP (8.5 × 10^6 cells) cells were inoculated subcutaneously behind the left shoulder. When the tumor grew to 5–8 mm in diameter over 3–4 weeks and 4–5 weeks for HEK293T:hFAP and LNCaP tumors, respectively, the mice were used for PET/CT imaging and biodistribution studies.
For biodistribution studies, the mice were injected with the radiotracer (~2–4 MBq) as described above. At 1 h post injection, the mice were euthanized by CO2 inhalation. Blood was withdrawn by cardiac puncture, and organs/tissues of interest were collected, weighed, and counted using a Perkin Elmer (Waltham, MA, USA) Wizard2 2480 automatic gamma counter.

T1 sequence (Q04609 whole entry): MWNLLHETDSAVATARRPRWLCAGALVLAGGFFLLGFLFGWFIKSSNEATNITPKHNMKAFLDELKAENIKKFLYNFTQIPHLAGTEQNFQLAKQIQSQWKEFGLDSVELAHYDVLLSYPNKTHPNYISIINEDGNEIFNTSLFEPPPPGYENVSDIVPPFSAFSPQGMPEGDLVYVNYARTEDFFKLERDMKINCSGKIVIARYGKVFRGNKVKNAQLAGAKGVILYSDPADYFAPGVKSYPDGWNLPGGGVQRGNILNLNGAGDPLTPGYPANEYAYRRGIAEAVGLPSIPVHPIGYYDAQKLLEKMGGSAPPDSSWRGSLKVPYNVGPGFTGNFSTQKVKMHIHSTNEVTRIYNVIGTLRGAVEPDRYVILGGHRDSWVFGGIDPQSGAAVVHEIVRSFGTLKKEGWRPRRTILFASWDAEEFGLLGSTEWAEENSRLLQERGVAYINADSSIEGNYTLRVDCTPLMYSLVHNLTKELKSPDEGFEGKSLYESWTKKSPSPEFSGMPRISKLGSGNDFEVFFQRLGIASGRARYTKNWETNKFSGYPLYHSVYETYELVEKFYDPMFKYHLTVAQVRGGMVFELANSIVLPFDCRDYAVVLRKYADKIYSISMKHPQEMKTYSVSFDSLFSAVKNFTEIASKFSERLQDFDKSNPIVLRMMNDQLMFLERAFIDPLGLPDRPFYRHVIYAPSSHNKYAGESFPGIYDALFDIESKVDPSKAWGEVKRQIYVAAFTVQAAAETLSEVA

Row | IC50 (PSMA) | IC50 (recombinant human FAP) | Blood uptake values (range over both tumor models) [1] | Compound
1 | 71.6 ± 23 nM | 2.74 ± 0.33 nM | 5.68–5.75 %ID/g | N#C[C@@H]1CC(F)(F)CN1C(=O)CNC(=O)c1ccnc2ccc(-c3cn(CC(=O)N[C@@H](CCCCNC(=O)CN4CCN(CC(=O)[O-])CCN(CC(=O)[O-])CCN(CC(=O)[O-])CC4)C(=O)NCC(=O)NC[C@H]4CC[C@H](C(=O)N[C@@H](Cc5c6ccccc6cc6ccccc56)C(=O)NCCCC[C@H](NC(=O)N[C@@H](CCC(=O)O)C(=O)O)C(=O)O)CC4)nn3)cc12.[Ga+3] [Ga-AV01030]
2 | 29.4 ± 25.2 nM | 2.31 ± 0.13 nM | 7.07–7.45 %ID/g | N#C[C@@H]1CC(F)(F)CN1C(=O)CNC(=O)c1ccnc2ccc(OCc3cn(CC(=O)N[C@@H](CCCCNC(=O)CN4CCN(CC(=O)[O-])CCN(CC(=O)[O-])CCN(CC(=O)[O-])CC4)C(=O)NCC(=O)NC[C@H]4CC[C@H](C(=O)N[C@@H](Cc5c6ccccc6cc6ccccc56)C(=O)NCCCC[C@H](NC(=O)N[C@@H](CCC(=O)O)C(=O)O)C(=O)O)CC4)nn3)cc12.[Ga+3] [Ga-AV01038]
3 | 25.2 ± 10.7 nM | 1.25 ± 0.39 nM | 9.24–11.9 %ID/g | N#C[C@@H]1CC(F)(F)CN1C(=O)CNC(=O)c1ccnc2ccc(OCCCc3cn(CC(=O)N[C@@H](CCCCNC(=O)CN4CCN(CC(=O)[O-])CCN(CC(=O)[O-])CCN(CC(=O)[O-])CC4)C(=O)NCC(=O)NC[C@H]4CC[C@H](C(=O)N[C@@H](Cc5c6ccccc6cc6ccccc56)C(=O)NCCCC[C@H](NC(=O)N[C@@H](CCC(=O)O)C(=O)O)C(=O)O)CC4)nn3)cc12.[Ga+3] [Ga-AV01017]

Row | Compound | IC50 (PSMA) | IC50 (recombinant human FAP) | Blood uptake values (range over both tumor models) [1]
4 | O=C([O-])CN1CCN(CC(=O)[O-])CCN(CC(=O)NC[C@H]2CC[C@H](C(=O)N[C@@H](Cc3c4ccccc4cc4ccccc34)C(=O)NCCCC[C@H](NC(=O)N[C@@H](CCC(=O)O)C(=O)O)C(=O)O)CC2)CCN(CC(=O)[O-])CC1.[Ga+3] [Ga-HTK03041, reference compound] | 0.76 ± 0.12 nM | 2010 ± 585 nM | 
